# Test results reported in patent US11911413B2, “Methods and compositions for the treatment of pain and/or inflammation” (Proteobioactives Pty Limited, priority 2018, dated 2024).
# Assays:
# [1] = tested on: postmenopausal women with mild to moderate osteoarthritis; conditions: cited from earlier work
# [2] = tested on: elderly subjects with high blood viscosity and filterability; conditions: 15 elderly subjects; IM 50 mg NaPPS twice daily for a week; cited from earlier work
# [3] = tested on: leukocytes isolated from the blood of these patients; conditions: seven days after NaPPS administration, cited from earlier work
# [4] = tested on: patients with symptomatic knee OA; conditions: NaPPS 3 mg/kg, 4 weekly IM injections, cited from earlier work
# [5] = tested on: Japanese patients with mild knee OA; conditions: weekly subcutaneous 2 mg/kg NaPPS over 6 weeks; assessed to 52 weeks; cited from earlier work
# [6] = single oral dose [3H]PPS with 300 or 450 mg un-labelled PPS; healthy female subjects; cited from earlier work
# [7] = tested on: patients with bone marrow lesions (oedema) diagnosed by MRI; conditions: PPS administered systemically (IM or SC); cited from earlier work
# [8] = 223 cases in the United States, FDA memorandum 2005; cited from earlier work
# [9] = tested on: patients with hand OA; assay: Double-blind comparator clinical trial Pentabrex vs celecoxib, hand OA (Example 7); assay type: in vivo, human
# Source text: (§1) A prospective, dose ranging, double-blind, comparator clinical trial to evaluate the tolerability and efficacy of Pentabrex™, (Proteobioactives Pty Ltd, Balgowlah, NSW, Australia) compared to celecoxib, for the relief of symptoms in elderly patients with OA of the hand and knee conducted at the Subiaco Rheumatology Clinic, Subiaco, Perth, WA, Australia.
# (§2) Thirty three male and female patients with symptomatic hand or knee OA were obtained from referrals sent by general medical practitioners located in Perth (Western Australia) suburbs. […] To be included in the clinical trial, patients had to be 50 years of age or older and have an OA grade of 3-4 (Kellgren J H, Lawrence J S. Radiological assessment of osteoarthrosis. Annals Rheumatic Dis.1957; 16:494-502) that had been symptomatic for at least 6 months prior to their inclusion. If a patient had pain in both knees or both hands, the more painful knee or hand was the joint used for assessment. If patients had both hand and knee OA each most painful joint was assessed separately.
# (§3) Patients with rheumatoid arthritis or any other rheumatic condition that required the continuous administration of a second line rheumatic agent such as methotrexate, steroid or cytokine antagonist, had current bleeding diathesis or were receiving treatment with blood thinners (such as warfarin), or had any significant medical conditions involving the liver, kidney, or their motor or nervous systems were excluded from the trial.
# (§4) Although patients were requested not to consume additional analgesics or NSAIDs over the duration of the study, if they found this to be too difficult because of the unacceptable level of pain they experienced, they were required to document the drugs and quantities they used for relief of pain in a six week daily diary that supplied with the clinical trial test package manufactured by the compounding chemist (Kingsway, Brookvale NSW 2100, Australia). Failure to complete the daily dairies over the duration of the 6 week trial and return the used blister pack to the examining clinician at the final consultation would be taken as to non-compliance with the trial protocol. The diary requirement was included as part of patient assessment for the duration of the trial because of the known non-compliance of patients taking oral medications over extended periods of time (van Berge Henegouwen MTH, van Driel H F, Kasteleijn-Nolst DGA. A patient diary as a tool to improve medicine compliance. Pharm World Sci. 1999; 21: 21-24, Farmer K C, Methods for measuring and monitoring medication regimen adherence in clinical trials and clinical practice. Clinical […]
# At the commencement of the trial details of the patient's age, height, weight, location of the most painful joints, duration of symptoms and grade of OA were recorded. […]
# [10] = tested on: patients with knee OA; assay: Double-blind comparator clinical trial Pentabrex vs celecoxib, knee OA (Example 7); assay type: in vivo, human
# Source text: as §1, §2, §3, §4
# For patients with OA of the knee joints their VAS pain scores were determined for their pain at rest, pain on walking and early morning stiffness. […]
# [11] = tested on: patients with OA of the hand and knee; assay: Double-blind comparator clinical trial, hand and knee OA combined (Example 7); assay type: in vivo, human; conditions: daily for 6 weeks
# Source text: as §1, §2, §4
# The same clinical parameters that were determined for all patients at baseline were assessed at the final examination six weeks later. The patient's diaries and blister packs returned were also examined and the number of supplementary analgesics they consumed was recorded. Any adverse side effects noted over the duration of the trial were also recorded. […]
# [12] = Pentabrex 350 mg or celecoxib 175 mg daily for 6 weeks
# [13] = Pentabrex n = 5, celecoxib n = 4, daily for 6 weeks
# [14] = Pentabrex n = 5, celecoxib n = 9, daily for 6 weeks
compound,measurement,setting,value
"[2R,3R,4S,5R)-2-hydroxy-5-[(2S,3R,4S,5R)-5-hydroxy-3,4-disulfo-oxyoxan-2-yl]oxy-3-sulfooxyoxan-4-yl] hydrogen sulfate [NaPPS]",peripheral blood mononuclear cell procoagulant activity (MPA),"[1]; 3 mg/kg NaPPS IM, 24 hours after administration",significantly reduced to within the normal range
same,"Plasma concentrations of lipoprotein lipase, hepatolipase, and superoxide dismutase","[1]; 3 mg/kg NaPPS IM, between 2 and 4 hours after administration",significantly elevated
same,patients reporting significant clinical improvement of their symptoms,"[1]; 4 weekly IM injections of 3 mg/kg, for up to 12 weeks after the last injection",11
same,blood viscosity and filterability,[2],significant reduction
same,concentrations of arachidonic acid-derived lipoxygenase (LOX) metabolites released from the cells,[3]; compared to leukocytes collected before,significantly decreased
same,prostaglandin metabolites generated by the COX pathways,[3]; non-stimulated leukocytes,increased
same,"pain on walking and other physical activities, such as stair climbing",[4],significantly improved
same,joint pain at rest relative to placebo controls,[4]; maintained for 20 weeks after cessation,significantly improvement
same,"joint swelling, knee flexion, pain while walking and stair climbing",[5],improved significantly
same,administered dose excreted in the faeces as intact PPS,[6],84%
same,administered dose excreted in urine in a depolymerized form,[6],6%
same,bone marrow lesions (oedema) and accompanying pain,[7],resolved the bone marrow lesions (oedema) and accompanying pain
CCc1cccc2c3c([nH]c12)C(CC)(CC(=O)O)OCC3 (stereo not drawn) [etodolac],thrombotic or embolic events associated with the drug,[8],22 cases
"CS(=O)(=O)c1ccc(C2=C(c3ccccc3)C(=O)OC2)cc1 [rofecoxib, 4-(4-methylsulfonylphenyl)-3-phenyl-5H-furan-2-one]",thrombotic or embolic events associated with the drug,[8],99 cases
"Cc1ccc(-c2cc(C(F)(F)F)nn2-c2ccc(S(N)(=O)=O)cc2)cc1 [Celecoxib, 4-[5-(4-methylphenyl)-3-(trifluoromethyl)pyrazol-1-yl] benzene sulfonamide]","Negative response, % of patients",[9]; [12],75%
same,"Positive response, % of patients",[9]; [12],25%
same,"Negative response, number of patients",[9]; [13],3
same,"Positive response, number of patients",[9]; [13],1
same,"Negative response, % of patients",[10]; [12],23.33%
same,"Positive response, % of patients",[10]; [12],77.77%
same,"Negative response, number of patients",[10]; [14],2
same,"Positive response, number of patients",[10]; [14],7
same,"Negative response, % of patients",[11],38.46%
same,"Negative response, number of patients",[11],5
same,"Positive response, % of patients",[11],61.54%
same,"Positive response, number of patients",[11],8
same,thrombotic or embolic events associated with the drug,[8],102 cases
